Measured values from patent US20100010060A1, “Isoindolin-1-One-, Isoindolin-3-One- and Isoindolin-1,3-Dione-Derivatives and Use Thereof” (Bayer Healthcare AG, priority 2006, published 2010).

Target: human factor Xa (FXa) (Homo sapiens, UniProt P00742)
Experiment: Determination of the factor Xa inhibition (chromogenic substrate)
Format: biochemical
Settings: human FXa 0.5 nmol/l, 150 μmol/l Pefachrome FXa, 25° C., pH 8.3, extinction at 405 nm
Protocol: a.1) Determination of the Factor Xa Inhibition:
The enzymatic activity of human factor Xa (FXa) is measured using the conversion of a chromogenic substrate specific for FXa. Factor Xa cleaves p-nitroaniline from the chromogenic substrate. The determinations are carried out in microtitre plates as follows:
The test substances, in various concentrations, are dissolved in DMSO and incubated for 10 minutes at 25° C. with human FXa (0.5 nmol/l dissolved in 50 mmol/l of Tris buffer [C,C,C-tris(hydroxymethyl)aminomethane], 150 mmol/l of NaCl, 0.1% BSA [bovine serum albumin], pH=8.3). Pure DMSO is used as control. The chromogenic substrate (150 μmol/l of Pefachrome® FXa from Pentapharm) is then added. After an incubation time of 20 minutes at 25° C., the extinction at 405 nm is determined.

human factor Xa (FXa), sequence (P00742 235-488 limits assumed): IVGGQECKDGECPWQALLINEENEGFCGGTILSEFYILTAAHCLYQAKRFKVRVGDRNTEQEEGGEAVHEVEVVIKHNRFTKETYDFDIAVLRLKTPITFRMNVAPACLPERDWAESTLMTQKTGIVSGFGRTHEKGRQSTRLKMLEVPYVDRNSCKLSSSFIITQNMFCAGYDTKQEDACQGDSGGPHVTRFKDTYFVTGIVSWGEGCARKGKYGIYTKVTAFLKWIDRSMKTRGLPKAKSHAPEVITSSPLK
human factor Xa (FXa), sequence (P00742 41-179 partner limits assumed): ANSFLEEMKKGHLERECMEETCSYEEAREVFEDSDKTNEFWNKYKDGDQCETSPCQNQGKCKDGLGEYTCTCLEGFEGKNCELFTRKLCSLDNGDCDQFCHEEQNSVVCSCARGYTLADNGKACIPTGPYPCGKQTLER

Compound N=C1OCCN1c1cccc(CN2Cc3cccc(NC(=O)c4ccc(Cl)s4)c3C2=O)c1 [Example 5, 5-Chloro-N-{2-[3-(2-imino-1,3-oxazolidin-3-yl)benzyl]-3-oxo-2,3-dihydro-1H-isoindol-4-yl}-thiophene-2-carboxamide methanesulphonate] has an IC50 of 1.1 nM.
